Laboratory results: ChEMBL document CHEMBL1129269, “1-aryl-4-[(1-tetralinyl)alkyl]piperazines: alkylamido and alkylamino derivatives. Synthesis, 5-HT1A receptor affinity, and selectivity. 3” (J Med Chem, 1996)

Columns and labels:
[1] = biological target: T1, Adrenergic receptor alpha-2 (Rattus norvegicus, UniProt P22086+P19328+P22909); test: Binding affinity against Alpha-2 adrenergic receptor in rat brain membrane using [3H]yohimbine as radioligand; format: cell membranes
T1 sequence (P22086 whole entry): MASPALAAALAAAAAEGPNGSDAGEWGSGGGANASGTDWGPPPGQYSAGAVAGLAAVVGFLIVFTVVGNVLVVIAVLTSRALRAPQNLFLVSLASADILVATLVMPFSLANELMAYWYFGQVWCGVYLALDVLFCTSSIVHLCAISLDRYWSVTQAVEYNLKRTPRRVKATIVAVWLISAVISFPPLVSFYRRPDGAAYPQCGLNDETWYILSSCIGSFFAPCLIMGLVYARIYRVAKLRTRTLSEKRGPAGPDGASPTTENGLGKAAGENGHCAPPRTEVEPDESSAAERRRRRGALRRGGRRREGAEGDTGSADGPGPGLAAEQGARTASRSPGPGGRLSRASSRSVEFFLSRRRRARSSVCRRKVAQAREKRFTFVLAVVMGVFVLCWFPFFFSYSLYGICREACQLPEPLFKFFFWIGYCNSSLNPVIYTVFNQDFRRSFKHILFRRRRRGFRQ
T1 sequence (P19328 whole entry): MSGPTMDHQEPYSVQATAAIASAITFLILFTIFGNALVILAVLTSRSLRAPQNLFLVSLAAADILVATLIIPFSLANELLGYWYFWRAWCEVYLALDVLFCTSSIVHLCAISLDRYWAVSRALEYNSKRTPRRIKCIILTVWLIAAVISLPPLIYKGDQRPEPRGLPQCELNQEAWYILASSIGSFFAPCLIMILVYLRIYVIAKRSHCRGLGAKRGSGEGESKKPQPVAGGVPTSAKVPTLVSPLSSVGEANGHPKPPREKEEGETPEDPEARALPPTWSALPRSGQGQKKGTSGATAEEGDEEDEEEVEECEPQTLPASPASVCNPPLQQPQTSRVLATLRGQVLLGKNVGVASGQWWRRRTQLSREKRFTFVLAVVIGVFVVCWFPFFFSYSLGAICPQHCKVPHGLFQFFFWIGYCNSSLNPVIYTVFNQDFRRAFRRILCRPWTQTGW
T1 sequence (P22909 whole entry): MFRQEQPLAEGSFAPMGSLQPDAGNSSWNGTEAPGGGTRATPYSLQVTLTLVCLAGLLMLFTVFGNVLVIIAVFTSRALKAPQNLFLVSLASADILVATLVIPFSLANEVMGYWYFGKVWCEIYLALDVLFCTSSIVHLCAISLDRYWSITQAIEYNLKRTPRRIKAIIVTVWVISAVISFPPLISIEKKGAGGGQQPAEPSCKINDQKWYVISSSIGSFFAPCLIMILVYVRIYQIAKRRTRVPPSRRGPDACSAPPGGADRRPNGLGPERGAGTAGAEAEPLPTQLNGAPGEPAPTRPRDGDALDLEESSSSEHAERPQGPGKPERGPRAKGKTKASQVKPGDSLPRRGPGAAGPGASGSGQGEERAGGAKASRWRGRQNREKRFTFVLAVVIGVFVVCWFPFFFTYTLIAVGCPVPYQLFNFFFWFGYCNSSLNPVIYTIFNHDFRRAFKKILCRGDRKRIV

[2] = biological target: T2, Adrenergic receptor alpha-1 (Rattus norvegicus, UniProt P15823+P23944+P43140); test: Binding affinity against Alpha-1 adrenergic receptor in rat brain membrane using [3H]prazosin as radioligand; format: cell membranes
T2 sequence (P15823 whole entry): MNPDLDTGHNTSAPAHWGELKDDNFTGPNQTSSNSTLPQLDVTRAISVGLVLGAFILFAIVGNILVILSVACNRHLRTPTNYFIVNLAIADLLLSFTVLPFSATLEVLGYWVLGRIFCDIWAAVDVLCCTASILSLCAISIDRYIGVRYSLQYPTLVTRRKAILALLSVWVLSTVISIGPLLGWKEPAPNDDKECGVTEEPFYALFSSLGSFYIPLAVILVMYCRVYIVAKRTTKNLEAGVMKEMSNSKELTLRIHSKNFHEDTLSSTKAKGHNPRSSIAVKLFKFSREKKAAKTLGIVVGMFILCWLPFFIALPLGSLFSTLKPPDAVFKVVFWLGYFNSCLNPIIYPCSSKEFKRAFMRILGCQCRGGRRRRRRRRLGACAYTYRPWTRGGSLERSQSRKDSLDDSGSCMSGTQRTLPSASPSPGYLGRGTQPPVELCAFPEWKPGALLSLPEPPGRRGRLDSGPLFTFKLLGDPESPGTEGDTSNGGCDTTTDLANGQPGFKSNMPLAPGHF
T2 sequence (P23944 whole entry): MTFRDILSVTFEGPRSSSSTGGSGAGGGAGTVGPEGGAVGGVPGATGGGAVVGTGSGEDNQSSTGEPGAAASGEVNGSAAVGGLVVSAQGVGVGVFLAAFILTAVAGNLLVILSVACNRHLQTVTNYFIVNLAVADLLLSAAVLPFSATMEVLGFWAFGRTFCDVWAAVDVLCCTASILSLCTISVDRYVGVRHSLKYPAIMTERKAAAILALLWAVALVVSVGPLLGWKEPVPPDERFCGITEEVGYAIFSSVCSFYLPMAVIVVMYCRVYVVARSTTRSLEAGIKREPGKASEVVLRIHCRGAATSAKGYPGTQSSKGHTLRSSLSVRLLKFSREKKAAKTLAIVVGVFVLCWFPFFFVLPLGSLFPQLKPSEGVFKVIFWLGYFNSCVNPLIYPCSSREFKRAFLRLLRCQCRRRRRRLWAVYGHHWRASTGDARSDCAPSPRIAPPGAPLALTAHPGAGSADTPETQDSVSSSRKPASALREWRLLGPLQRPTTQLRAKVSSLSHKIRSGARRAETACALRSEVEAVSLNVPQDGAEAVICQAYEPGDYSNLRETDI
T2 sequence (P43140 whole entry): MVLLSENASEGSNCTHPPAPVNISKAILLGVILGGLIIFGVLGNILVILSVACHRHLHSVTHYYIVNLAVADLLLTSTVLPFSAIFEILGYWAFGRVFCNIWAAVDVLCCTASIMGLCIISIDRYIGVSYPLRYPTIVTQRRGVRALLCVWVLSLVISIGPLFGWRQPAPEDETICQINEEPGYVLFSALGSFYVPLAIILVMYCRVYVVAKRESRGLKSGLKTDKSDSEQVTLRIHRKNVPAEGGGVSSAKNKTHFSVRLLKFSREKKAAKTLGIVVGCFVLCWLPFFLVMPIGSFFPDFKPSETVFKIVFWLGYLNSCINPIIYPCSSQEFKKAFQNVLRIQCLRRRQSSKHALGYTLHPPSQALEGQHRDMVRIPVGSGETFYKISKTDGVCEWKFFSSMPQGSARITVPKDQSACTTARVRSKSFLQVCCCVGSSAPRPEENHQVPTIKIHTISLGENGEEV

D(2) dopamine receptor [3] = biological target: T3, D(2) dopamine receptor (Rattus norvegicus, UniProt P61169); test: Binding affinity against Dopamine receptor D2 in rat striatal membrane using [3H]spiroperidol as radioligand; format: cell membranes, Striatum
T3 sequence (P61169 whole entry): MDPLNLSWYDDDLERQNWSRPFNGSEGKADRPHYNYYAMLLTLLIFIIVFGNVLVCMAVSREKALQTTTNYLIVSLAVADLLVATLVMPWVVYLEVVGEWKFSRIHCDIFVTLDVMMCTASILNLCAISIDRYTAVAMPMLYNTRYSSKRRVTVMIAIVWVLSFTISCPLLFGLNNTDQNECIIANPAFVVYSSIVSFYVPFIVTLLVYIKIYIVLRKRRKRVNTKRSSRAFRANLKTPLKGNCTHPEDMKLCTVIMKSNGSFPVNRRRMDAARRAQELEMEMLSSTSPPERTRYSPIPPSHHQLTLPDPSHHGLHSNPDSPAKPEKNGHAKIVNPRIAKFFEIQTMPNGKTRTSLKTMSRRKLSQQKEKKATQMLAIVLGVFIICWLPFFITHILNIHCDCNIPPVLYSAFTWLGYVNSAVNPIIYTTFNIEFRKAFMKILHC

[4] = biological target: Serotonin 2 (5-HT2) receptor (Rattus norvegicus, UniProt P30994+P08909+P14842); test: Binding affinity against 5-hydroxytryptamine 2 receptor in rat brain using [3H]ketanserin as radioligand; format: tissue-based
[5] = biological target: T4, 5-hydroxytryptamine receptor 1A (Rattus norvegicus, UniProt P19327); test: Binding affinity against serotonin 5-hydroxytryptamine 1A receptor in rat hippocampus membrane using [3H]8-OH-DPAT as radioligand; format: cell membranes
T4 sequence (P19327 whole entry): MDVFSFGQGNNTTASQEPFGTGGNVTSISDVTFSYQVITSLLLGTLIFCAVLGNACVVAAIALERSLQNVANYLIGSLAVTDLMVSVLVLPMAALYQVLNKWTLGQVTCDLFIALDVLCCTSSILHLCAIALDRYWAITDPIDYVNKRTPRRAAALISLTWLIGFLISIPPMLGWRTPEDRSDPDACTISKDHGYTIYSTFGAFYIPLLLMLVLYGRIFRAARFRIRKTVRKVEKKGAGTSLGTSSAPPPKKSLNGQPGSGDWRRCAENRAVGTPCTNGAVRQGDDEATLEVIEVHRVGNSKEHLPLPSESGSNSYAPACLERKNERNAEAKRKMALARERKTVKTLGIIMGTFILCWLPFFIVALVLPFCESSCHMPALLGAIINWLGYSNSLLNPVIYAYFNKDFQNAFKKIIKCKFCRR

[6] = biological target: T4, 5-hydroxytryptamine receptor 1A; test: Binding affinity against 5-hydroxytryptamine 1A receptor in rat hippocampus membranes using [3H]8-OH-DPAT as radioligand; format: cell membranes, Membrane
D(2) dopamine receptor [7] = biological target: T3, D(2) dopamine receptor; test: biochemical
Description: Binding affinity to rat Dopamine receptor D2 expressed in CHO cells was determined using [125 I ] iodosulpride as radioligand

| SMILES | IC50 [1] [nM] | IC50 [2] [nM] | IC50 (D(2) dopamine receptor [3]) [nM] | IC50 [4] [nM] | IC50 [5] [nM] | IC50 [6] [nM] | IC50 (D(2) dopamine receptor [7]) [nM] |
| --- | --- | --- | --- | --- | --- | --- | --- |
| COc1ccccc1N1CCN(CCC(=O)NC2CCCc3c(OC)cccc32)CC1 (configuration not stated) | 1250 | 153 | 761 | 841 |  |  |  |
| COc1cccc2c1CCCC2C(=O)NCCN1CCN(c2ccccc2)CC1 (configuration not stated) | 1850 | 427 | 4040 | 1560 | 416 |  |  |
| COc1ccccc1N1CCN(CCN(C)C(=O)C2CCCc3c(OC)cccc32)CC1 (configuration not stated) | 183 | 297 | 332 | 1070 |  | 307 |  |
| COc1cccc2c1CCCC2CCCN1CCN(c2ccccc2)CC1 (configuration not stated) | 260 | 43 |  | 230 | 0.5 |  | 110 |
| COc1cccc2c1CCCC2NC(=O)CCN1CCN(c2ccccn2)CC1 (configuration not stated) | 1330 | 534 | 1900 | 726 |  | 135 |  |
| COc1cccc2c1CCCC2C(=O)NCCCN1CCN(c2ccccn2)CC1 (configuration not stated) | 746 | 327 | 819 | 428 |  | 95 |  |
| COc1cccc2c1CCCC2NCCCN1CCN(c2ccccc2)CC1 (configuration not stated) | 788 | 626 | 2160 | 2690 |  | 53 |  |
| COc1cccc2c1CCCC2NCCN1CCN(c2ccccc2)CC1 (configuration not stated) | 310 | 790 | 1200 | 2720 |  | 92 |  |
| COc1cccc2c1CCCC2C(=O)N(C)CCN1CCN(c2ccccc2)CC1 (configuration not stated) | 250 | 510 | 882 | 848 |  | 271 |  |
| COc1ccccc1N1CCN(CCN(C)C2CCCc3c(OC)cccc32)CC1 (configuration not stated) | 112 | 887 | 73 | 1740 |  | 8.7 |  |
| COc1cccc2c1CCCC2CCCN1CCN(c2ccccn2)CC1 (configuration not stated) | 48 | 66 |  | 250 | 0.54 |  | 140 |
| CCCN(CCC)C1CCc2cccc(O)c2C1 (configuration not stated) [8-OH-DPAT] | 810 |  |  | > 10000 |  |  | 5.2 |
